According to ChEMBL document CHEMBL4376892, “Identification of Parthenolide Dimers as Activators of Pyruvate Kinase M2 in Xenografts of Glioblastoma Multiforme in Vivo” (J Med Chem, 2020):
Active and inactive are the calls of the source. The calls are words filed in the database; no cut-off is given here.

Assays:
U-87 MG [1] = test: Antiproliferative activity against human U87 cells assessed as reduction in cell viability after 72 hrs by MTT assay; assay type: functional, cell-based, U-87MG ATCC
SF-126 = test: Antiproliferative activity against human SF126 cells assessed as reduction in cell viability after 72 hrs by MTT assay; assay type: functional, cell-based; details: SF-126, 72 h
C6 = test: Antiproliferative activity against rat C6 cells assessed as reduction in cell viability after 72 hrs by MTT assay; assay type: functional, cell-based; details: C6, 72 h
NIH3T3 = test: Cytotoxicity against mouse 3T3 cells assessed as reduction in cell viability after 72 hrs by MTT assay; assay type: cell-based; details: NIH3T3, 72 h
HeLa = test: Antiproliferative activity against human HeLa cells assessed as reduction in cell viability after 72 hrs by MTT assay; assay type: functional, cell-based
SUM-159-PT = test: Antiproliferative activity against human SUM159 cells assessed as reduction in cell viability after 72 hrs by MTT assay; assay type: functional, cell-based
A549 = test: Antiproliferative activity against human A549 cells assessed as reduction in cell viability after 72 hrs by MTT assay; assay type: functional, cell-based; details: A549, 72 h
U-87 MG [2] = test: Antimetastatic activity against human U87 cells assessed as reduction in cell migration at 2 uM after 24 hrs by crystal violet staining based transwell assay; assay type: functional; details: U-87MG ATCC
U-118-MG [3] = test: Effect on total PKM2 protein expression in human U118MG cells at 0.5 to 2 uM after 48 hrs by Western blot analysis; assay type: functional, cell-based
Pyruvate kinase PKM [4] = target: T1, Pyruvate kinase PKM (Homo sapiens, UniProt P14618); test: Inhibition of PKM2 dimer nuclear translocation in human U87 cells assessed as reduction in PKM2 accumulation in nucleus at 0.5 to 1 uM after 48 hrs by Western blot analysis; assay type: cell-based; details: U-87MG ATCC
T1 sequence (P14618 2-531 limits assumed): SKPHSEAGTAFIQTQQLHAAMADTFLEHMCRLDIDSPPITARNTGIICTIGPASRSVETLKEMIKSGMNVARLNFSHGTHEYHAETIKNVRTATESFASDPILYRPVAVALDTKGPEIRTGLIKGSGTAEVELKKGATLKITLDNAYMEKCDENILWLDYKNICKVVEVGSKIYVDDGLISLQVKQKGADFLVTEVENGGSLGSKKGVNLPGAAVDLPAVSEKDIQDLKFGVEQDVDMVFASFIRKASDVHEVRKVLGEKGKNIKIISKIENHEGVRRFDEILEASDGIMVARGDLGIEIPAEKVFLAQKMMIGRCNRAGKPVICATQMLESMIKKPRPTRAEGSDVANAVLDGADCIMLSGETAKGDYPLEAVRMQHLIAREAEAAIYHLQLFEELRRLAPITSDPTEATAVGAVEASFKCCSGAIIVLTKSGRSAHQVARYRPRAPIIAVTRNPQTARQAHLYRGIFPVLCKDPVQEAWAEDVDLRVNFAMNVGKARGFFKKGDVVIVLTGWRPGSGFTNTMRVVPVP

Pyruvate kinase PKM [5] = target: T1, Pyruvate kinase PKM; test: Inhibition of PKM2 dimer nuclear translocation in human U118MG cells assessed as reduction in PKM2 accumulation in nucleus at 0.5 to 1 uM after 48 hrs by Western blot analysis; assay type: cell-based
Pyruvate kinase PKM [6] = target: T1, Pyruvate kinase PKM; test: Activation of PKM2 in human U118MG cells assessed as increase in PKM2 tetramer formation at 0.5 to 1 uM after 48 hrs by chemical cross-linking based Western blot analysis; assay type: cell-based
U-87MG ATCC = test: Effect on P65 protein expression in human U87 cells at 0.2 to 0.5 uM after 48 hrs by Western blot analysis; assay type: functional, cell-based
U-118-MG [7] = test: Effect on IKK-beta protein expression in human U118MG cells at 0.2 to 0.5 uM after 48 hrs by Western blot analysis; assay type: functional, cell-based
[8] = target: Transcription factor p65 (Homo sapiens) (UniProt Q04206); test: Effect on NFkappaB p65 nuclear translocation in human U118MG cells at 0.2 to 0.5 after 48 hrs by Western blot analysis; assay type: cell-based
Sequence of Transcription factor p65 (Homo sapiens) (Q04206 whole entry): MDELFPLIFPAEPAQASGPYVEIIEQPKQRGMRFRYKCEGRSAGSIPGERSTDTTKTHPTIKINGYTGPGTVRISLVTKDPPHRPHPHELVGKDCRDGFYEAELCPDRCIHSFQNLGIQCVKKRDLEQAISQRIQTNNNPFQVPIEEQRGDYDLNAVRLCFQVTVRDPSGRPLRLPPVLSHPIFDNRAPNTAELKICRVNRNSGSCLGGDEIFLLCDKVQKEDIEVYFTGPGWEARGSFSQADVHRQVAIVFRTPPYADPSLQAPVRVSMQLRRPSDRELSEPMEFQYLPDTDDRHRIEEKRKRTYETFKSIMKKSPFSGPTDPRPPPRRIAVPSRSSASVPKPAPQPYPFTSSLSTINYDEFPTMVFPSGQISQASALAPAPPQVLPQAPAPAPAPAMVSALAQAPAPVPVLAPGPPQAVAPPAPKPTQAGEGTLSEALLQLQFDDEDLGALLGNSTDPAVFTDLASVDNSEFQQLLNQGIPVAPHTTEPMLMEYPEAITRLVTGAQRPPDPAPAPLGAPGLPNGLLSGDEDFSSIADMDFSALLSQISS

Pyruvate kinase PKM [9] = target: T1, Pyruvate kinase PKM; test: Activation of PKM2 in human U118MG cells assessed as inhibition of STAT3 protein expression at 1 to 2 uM after 24 hrs by Western blot analysis; assay type: cell-based
Pyruvate kinase PKM [10] = target: T1, Pyruvate kinase PKM; test: Activation of PKM2 in human U87 cells assessed as inhibition of STAT3 phosphorylation at 1 to 2 uM after 24 hrs by Western blot analysis; assay type: cell-based; details: U-87MG ATCC
Pyruvate kinase PKM [11] = target: T1, Pyruvate kinase PKM; test: Activation of PKM2 in human U87 cells assessed as increase in E-cadherin expression at 1 to 2 uM after 24 hrs by Western blot analysis; assay type: cell-based; details: U-87MG ATCC
Pyruvate kinase PKM [12] = target: T1, Pyruvate kinase PKM; test: Activation of PKM2 in human U87 cells assessed as increase in bax protein expression at 1 to 2 uM after 48 hrs by Western blot analysis; assay type: cell-based; details: U-87MG ATCC
Pyruvate kinase PKM [13] = target: T1, Pyruvate kinase PKM; test: Activation of PKM2 in human U118MG cells assessed as increase in bax protein expression at 1 to 2 uM after 48 hrs by Western blot analysis; assay type: cell-based
Pyruvate kinase PKM [14] = target: T1, Pyruvate kinase PKM; test: Activation of PKM2 in human U87 cells assessed as reduction in bcl2 expression at 1 to 2 uM after 48 hrs by Western blot analysis; assay type: cell-based; details: U-87MG ATCC
Pyruvate kinase PKM [15] = target: T1, Pyruvate kinase PKM; test: Activation of PKM2 in human U87 cells assessed as reduction in bcl-xl expression at 1 to 2 uM after 48 hrs by Western blot analysis; assay type: cell-based; details: U-87MG ATCC
Pyruvate kinase PKM [16] = target: T1, Pyruvate kinase PKM; test: Activation of PKM2 in human U118MG cells assessed as inhibition of STAT3 protein expression at 2 uM after 48 hrs by Western blot analysis; assay type: cell-based
Pyruvate kinase PKM [17] = target: T1, Pyruvate kinase PKM; test: Activation of PKM2 in human U87 cells assessed as inhibition of STAT3 protein expression at 5 uM after 48 hrs by Western blot analysis; assay type: cell-based; details: U-87MG ATCC
U-87 MG [18] = test: Induction of apoptosis in human U87 cells transfected with lentivirus expressing shNC assessed as viable cells after 48 hrs by Annexin-V-FITC/PI-staining based flow cytometric analysis (reference value: 98.5%); assay type: functional, U-87MG ATCC
U-87 MG [19] = test: Induction of apoptosis in human U87 cells transfected with lentivirus expressing shNC assessed as early apoptotic cells after 48 hrs by Annexin-V-FITC/PI-staining based flow cytometric analysis (reference value: 0.588%); assay type: functional, U-87MG ATCC
U-87 MG [20] = test: Induction of apoptosis in human U87 cells transfected with lentivirus expressing shNC assessed as late apoptotic cells after 48 hrs by Annexin-V-FITC/PI-staining based flow cytometric analysis (reference value: 0.608%); assay type: functional, U-87MG ATCC
U-87 MG [21] = test: Induction of apoptosis in human U87 cells transfected with lentivirus expressing shPKM2 assessed as viable cells after 48 hrs by Annexin-V-FITC/PI-staining based flow cytometric analysis (reference value: 97.3%); assay type: functional, U-87MG ATCC
U-87 MG [22] = test: Induction of apoptosis in human U87 cells transfected with lentivirus expressing shPKM2 assessed as late apoptotic cells after 48 hrs by Annexin-V-FITC/PI-staining based flow cytometric analysis (reference value: 1.25%); assay type: functional, U-87MG ATCC
U-118-MG [23] = test: Induction of apoptosis in human U118MG cells transfected with lentivirus expressing shNC assessed as early apoptotic cells after 48 hrs by Annexin-V-FITC/PI-staining based flow cytometric analysis (reference value: 2.56%); assay type: functional
U-118-MG [24] = test: Induction of apoptosis in human U118MG cells transfected with lentivirus expressing shNC assessed as late apoptotic cells after 48 hrs by Annexin-V-FITC/PI-staining based flow cytometric analysis (reference value: 0.334%); assay type: functional
U-118-MG [25] = test: Induction of apoptosis in human U118MG cells transfected with lentivirus expressing shPKM2 assessed as late apoptotic cells after 48 hrs by Annexin-V-FITC/PI-staining based flow cytometric analysis (reference value: 0.221%); assay type: functional
U-118-MG [26] = test: Induction of apoptosis in human U118MG cells transfected with lentivirus expressing shPKM2 assessed as necrotic cells after 48 hrs by Annexin-V-FITC/PI-staining based flow cytometric analysis (reference value: 0.105%); assay type: functional
U-118-MG [27] = test: Antimigratory activity against human U118MG cells transfected with lentivirus expressing shPKM2 at 2 uM incubated for 48 hrs by crystal violet staining based transwell assay; assay type: functional, cell-based
U-118-MG [28] = test: Induction of apoptosis in human U118MG cells assessed as necrotic cells after 48 hrs by Annexin-V-FITC/PI-staining based flow cytometric analysis (reference value: 1.37%); assay type: functional
U-87 MG [29] = test: Induction of apoptosis in human U87 cells assessed as viable cells after 48 hrs by Annexin-V-FITC/PI-staining based flow cytometric analysis (reference value: 93.8%); assay type: functional, U-87MG ATCC
U-87 MG [30] = test: Induction of apoptosis in human U87 cells assessed as early apoptotic cells after 48 hrs by Annexin-V-FITC/PI-staining based flow cytometric analysis (reference value: 4.91%); assay type: functional, U-87MG ATCC

`C=C1C(=O)O[C@H]2[C@H]1CC/C(C(=O)OCCOCCOC(=O)/C1=C/CC[C@@]3(C)O[C@H]3[C@H]3OC(=O)C(=C)[C@@H]3CC1)=C\CC[C@@]1(C)O[C@@H]21` showed an IC50 (U-87 MG [1]) of 3.03 µM, an IC50 (SF-126) of 7.49 µM and an IC50 (C6) of 1.66 µM. For the same compound, the IC50 (NIH3T3) was 7.93 µM, the IC50 (HeLa) was 5.05 µM and the IC50 (SUM-159-PT) was 2.82 µM. The IC50 (A549) was 11.9 µM, the Activity (U-87 MG [2]) was “Active” and the Activity (U-118-MG [3]) was “inactive”. The inhibition (Pyruvate kinase PKM [4]) was “Active”, the inhibition (Pyruvate kinase PKM [5]) was “Active” and the Activity (Pyruvate kinase PKM [6]) was “Active”. For the same compound, the Activity (U-87MG ATCC) was “inactive”, the Activity (U-118-MG [7]) was “inactive” and the Activity [8] was “inactive”. The Activity (Pyruvate kinase PKM [9]) was “Active”, the Activity (Pyruvate kinase PKM [10]) was “Active” and the Activity (Pyruvate kinase PKM [11]) was “Active”. For the same compound, the Activity (Pyruvate kinase PKM [12]) was “Active”, the Activity (Pyruvate kinase PKM [13]) was “Active” and the Activity (Pyruvate kinase PKM [14]) was “Active”. The Activity (Pyruvate kinase PKM [15]) was “Active”, the Activity (Pyruvate kinase PKM [16]) was “Active” and the Activity (Pyruvate kinase PKM [17]) was “Active”. It also gave an Activity (U-87 MG [18]) of 85.1%, an Activity (U-87 MG [19]) of 9.99% and an Activity (U-87 MG [20]) of 3.62%. The Activity (U-87 MG [21]) was 93%, the Activity (U-87 MG [22]) was 2.76% and the Activity (U-118-MG [23]) was 47.1%. For the same compound, the Activity (U-118-MG [24]) was 16.4%, the Activity (U-118-MG [25]) was 1.32% and the Activity (U-118-MG [26]) was 0.09%. The Activity (U-118-MG [27]) was “inactive”, the Activity (U-118-MG [28]) was 6.01% and the Activity (U-87 MG [29]) was 72.5%. For the same compound, the Activity (U-87 MG [30]) was 24.4%.
